Experimental data published in US12473295B2, “Substituted straight chain spiro derivatives” (Janssen Pharmaceutica NV, priority 2019, dated 2025).
Where a name gives a salt, the structure may show the parent alone.

What was measured:
[1] = target: menin/MLL (terbium chelate-labeled menin, FITC-MBM1 peptide) (Homo sapiens (Human), UniProt O00255); assay: Menin/MLL homogenous time-resolved fluorescence (HTRF) assay; type: binding; settings: HTRF-30 min incubation IC50, 30 min incubation;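 note: IC50 from percent inhibition of HTRF signal, normalized between wells without competitor and wells with a saturating competitor that displaces FITC-MBM1 from His-tagged menin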
MOLM14 cells = assay: Proliferation assay (spheroid growth, 8 days), MOLM14; type: cell-based, human; settings: Homo sapiens, MOLM-14, […], MOLM14, 8 days; read-out: spheroid assay_OneTime MOLM14 IC50;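 note: spheroid size read as confluence by live-cell imaging, compounds added at a range of concentrations with 0.3% DMSO, DMSO-treated wells = 0%, highest reference dose = low control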
KO-52 cells = assay: Proliferation assay (spheroid growth, 8 days), KO-52 control cell line; type: cell-based, human; settings: Homo sapiens, […], read-out: spheroid assay_OneTime KO-52 IC50
Method in brief: (§1)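 IC50 values derive from day-8 spheroid confluence, normalized between DMSO-treated wells and the highest dose of a reference compound, fitted with a variable slope. Cells grew 8 days at 37° C under a compound concentration series in 0.3% DMSO.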

MEIS1 mRNA = MEIS1 mRNA expression assay (Quantigene Singleplex) in MOLM14 cells; type: cell-based, human; settings: Homo sapiens, MOLM-14, 48 h, 48 hours incubation;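 note: MEIS1 transcript levels read by probe hybridization and normalized to RPL28 mRNA, with IC50 fitted to fold changes across a rising compound concentration series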
OCI-AML3 cells = assay: Proliferation assay (spheroid growth, 8 days), OCI-AML3; type: cell-based, human; settings: Homo sapiens, OCI-AML-3, […], OCI-AML3, 8 days
Method in brief: as §1

menin/MLL (terbium chelate-labeled menin, FITC-MBM1 peptide), sequence (O00255 other isoform, or with tags, fused parts or gaps): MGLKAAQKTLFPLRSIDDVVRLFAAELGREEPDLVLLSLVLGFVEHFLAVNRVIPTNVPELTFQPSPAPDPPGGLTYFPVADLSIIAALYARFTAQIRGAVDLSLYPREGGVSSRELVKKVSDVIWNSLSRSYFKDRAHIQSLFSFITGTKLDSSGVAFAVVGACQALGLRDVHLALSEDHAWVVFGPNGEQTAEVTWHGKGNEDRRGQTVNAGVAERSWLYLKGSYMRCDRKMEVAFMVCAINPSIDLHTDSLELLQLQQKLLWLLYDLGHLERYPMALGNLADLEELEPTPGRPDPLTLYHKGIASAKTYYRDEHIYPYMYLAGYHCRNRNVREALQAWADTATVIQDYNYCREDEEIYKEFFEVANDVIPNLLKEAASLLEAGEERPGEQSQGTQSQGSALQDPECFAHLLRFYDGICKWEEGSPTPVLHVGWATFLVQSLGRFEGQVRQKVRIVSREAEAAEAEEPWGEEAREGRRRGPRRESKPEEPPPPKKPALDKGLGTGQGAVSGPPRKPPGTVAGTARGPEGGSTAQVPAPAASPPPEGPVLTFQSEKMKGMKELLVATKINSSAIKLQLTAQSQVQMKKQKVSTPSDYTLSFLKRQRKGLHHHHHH

Row | Compound | IC50 [1] [nM] | IC50 (MOLM14 cells) [nM] | IC50 (KO-52 cells) [nM] | IC50 (MEIS1 mRNA) [nM] | IC50 (OCI-AML3 cells) [nM]
1 | CCN(C(=O)c1cc(F)ccc1Oc1nncnc1N1CCC2(C1)CN([C@H](CCCN(C)CCCC(=O)N(C)C)C(C)C)C2)C(C)C [Compound 152, (R)-2-((5-(2-(6-((4-(dimethylamino)-4-oxobutyl)(methyl)amino)-2-methylhexan-3-yl)-2,6-diazaspiro[3.4]octan-6-yl)-1,2,4-triazin-6-yl)oxy)-N-ethyl-5-fluoro-N-isopropylbenzamide fumarate] | 0.19 | 37 | > 15000 | 87 | 350
2 | CCN(C(=O)c1cc(F)ccc1Oc1nncnc1N1CCC2(C1)CN([C@H](CCNCCC(N)=O)C(C)C)C2)C(C)C (single isomer, unassigned) [Compound 278, (*R)-2-((5-(2-(1-((3-amino-3-oxopropyl)amino)-4-methylpentan-3-yl)-2,6-diazaspiro[3.4]octan-6-yl)-1,2,4-triazin-6-yl)oxy)-N-ethyl-5-fluoro-N-isopropylbenzamide fumarate] | 0.068 | > 940 | > 15000 | > 1000 | 3210
3 | CCN(C(=O)c1cc(F)ccc1Oc1nncnc1N1CCC2(C1)CN([C@H](CCCN(C)[C@@H](C)COC)C(C)C)C2)C(C)C [Compound 157, N-ethyl-5-fluoro-N-isopropyl-2-((5-(2-((R)-6-((S)-1-methoxypropan-2-yl)(methyl)amino)-2-methylhexan-3-yl)-2,6-diazaspiro[3.4]octan-6-yl)-1,2,4-triazin-6-yl)oxy)benzamide fumarate] | 0.12 | 21 | 13800 | 22 | 83
4 | CCN(C(=O)c1cc(F)ccc1Oc1nncnc1N1CCC2(C1)CN([C@H](C[C@@H](CN(C)C)OC)C(C)C)C2)C(C)C (single isomer, unassigned) [Compound 315, 2-((5-(2-((3*R,5*S)-6-(dimethylamino)-5-methoxy-2-methylhexan-3-yl)-2,6-diazaspiro[3.4]octan-6-yl)-1,2,4-triazin-6-yl)oxy)-N-ethyl-5-fluoro-N-isopropylbenzamide fumarate] | 0.51 | 290 | > 15000 | ~330 | 1090
5 | CCCN(C)CCC[C@H](C(C)C)N1CC2(CCN(c3ncnnc3Oc3ccc(F)cc3C(=O)N(CC)C(C)C)C2)C1 (single isomer, unassigned) [Compound 127, (*R)—N-ethyl-5-fluoro-N-isopropyl-2-((2-methyl-6-(methyl(propyl)amino)hexan-3-yl)-2,6-diazaspiro[3.4]octan-6-yl)-1,2,4-triazin-6-yl)oxy)benzamide fumarate] | 0.089 | 26 | 11300 | 44 | 140
6 | COCCN(C)CCC[C@H](C(C)C)N1CC2(CCN(c3ccnnc3Oc3ccc(F)cc3C(=O)N(C(C)C)C(C)C)C2)C1 (single isomer, unassigned) [Compound 88, (*R)-5-fluoro-N,N-isopropyl-2-((4-(2-(6-((2-methoxyethyl)(methyl)amino)-methylhexan-3-yl)-2,6-diazaspiro[3.4]octan-6-yl)pyridazin-3-yl)oxy)benzamide oxalate] | 0.083 | 120 | 14000 | 130 | 810
7 | CCN(C(=O)c1cc(F)ccc1Oc1nncnc1N1CCC2(C1)CN([C@H](CCCN(C)[C@@H](C)CC(=O)NC)C(C)C)C2)C(C)C [Compound 193, N-ethyl-5-fluoro-N-isopropyl-2-((5-(2-((R)-2-methyl-6-(methyl((S)-4-(methylamino)-4-oxobutan-2-yl)amino)hexan-3-yl)-2,6-diazaspiro[3.4]octan-6-yl)-1,2,4-triazin-6-yl)oxy)benzamide fumarate] | ~0.26 | 170 | > 15000 | 120 | 290
8 | CCN(C(=O)c1cc(F)ccc1Oc1nncnc1N1CCC2(C1)CN([C@H](CCCN(C)CCCOC)C(C)C)C2)C(C)C [Compound 142, (R)-N-ethyl-5-fluoro-N-isopropyl-2-((5-(2-(6-((3-methoxypropyl)(methyl)amino)-2-methylhexan-3-yl)-2,6-diazaspiro[3.4]octan-6-yl)-1,2,4-triazin-6-yl)oxy)benzamide fumarate] | 0.071 | 12 | > 15000 | 51 | 220
9 | CC(C)[C@@H](CCCN(C)[C@H](C)CC(N)=O)N1CC2(CCN(c3ncnnc3Oc3ccc(F)cc3C(=O)N(C(C)C)C(C)C)C2)C1 (single isomer, unassigned) [Compound 199, 2-((5-(2-((*R)-6-(((R)-4-amino-4-oxobutan-2-yl)(methyl)amino)-2-methylhexan-3-yl)-2,6-diazaspiro[3.4]octan-6-yl)-1,2,4-triazin-6-yl)oxy)-5-fluoro-N,N-diisopropylbenzamide fumarate] | 0.13 | 460 | > 15000 | ~260 | 1910
10 | CCN(C(=O)c1cc(F)ccc1Oc1nncnc1N1CCC2(C1)CN([C@H](CCCN(C)CC(OC)OC)C(C)C)C2)C(C)C [Compound 150, (R)-2-((5-(2-(6-((2,2-dimethoxyethyl)(methyl)amino)-2-methylhexan-3-yl)-2,6-diazaspiro[3.4]octan-6-yl)-1,2,4-triazin-6-yl)oxy)-N-ethyl-5-fluoro-N-isopropylbenzamide fumarate] | 0.26 | 14 | 8700 | 13 | 160
11 | CCN(C(=O)c1cc(F)ccc1Oc1nncnc1N1CCC2(C1)CN([C@H](CCCNC(=O)NC)C(C)C)C2)C(C)C [Compound 8, (R)-N-ethyl-5-fluoro-N-isopropyl-2-((5-(2-(2-methyl-6-(3-methylureido)hexan-3-yl)-2,6-diazaspiro[3.4]octan-6-yl)-1,2,4-triazin-6-yl)oxy)benzamide] | 0.43 | 1020 | > 15000 | ~650 | 2150
12 | CCN(C(=O)c1cc(F)ccc1Oc1nncnc1N1CCC2(C1)CN([C@H](CCCN(C)C[C@@H](C)C(=O)N(C)C)C(C)C)C2)C(C)C (single isomer, unassigned) [Compound 188] | 0.43 | 55 | > 15000 | 34 | 340
13 | CCN(C(=O)c1cc(F)ccc1Oc1nncnc1N1CCC2(C1)CN([C@H](CCCCN(C)C)C(C)C)C2)C(C)C (single isomer, unassigned) [Compound 211] | 0.35 | 150 | > 15000 | 110 | 97
14 | CCN(C(=O)c1cc(F)ccc1Oc1nncnc1N1CCC2(C1)CN([C@H](CCCN(C)C[C@@H](C)OC)C(C)C)C2)C(C)C (single isomer, unassigned) [Compound 250, N-ethyl-5-fluoro-N-isopropyl-2-((5-(2-((R)-6-(((*R)-2-methoxypropyl)(methyl)amino)-2-methylhexan-3-yl)-2,6-diazaspiro[3.4]octan-6-yl)-1,2,4-triazin-6-yl)oxy)benzamide oxalate] | 0.18 | 220 | 7050 | 91 | 410
15 | CCN(C(=O)c1cc(F)ccc1Oc1nncnc1N1CCC2(C1)CN([C@H](CCCN(C)CC(CO)OC)C(C)C)C2)C(C)C (stereo partly drawn) [Compound 170, N-ethyl-5-fluoro-2-((5-(2-((3R)-6-((3-hydroxy-2-methoxypropyl)(methyl)amino)-2-methylhexan-3-yl)-2,6-diazaspiro[3.4]octan-6-yl)-1,2,4-triazin-6-yl)oxy)-N-isopropylbenzamide fumarate] | 0.1 | 25 | > 15000 | 37 | 41
16 | CCN(C(=O)c1cc(F)ccc1Oc1nncnc1N1CCC2(C1)CN([C@H](CCCN(C)C[C@@H](C)C(=O)NC)C(C)C)C2)C(C)C [Compound 195, N-ethyl-5-fluoro-N-isopropyl-2-((5-(2-((R)-2-methyl-6-(methyl((R)-2-methyl-3-(methylamino)-3-oxopropyl)amino)hexan-3-yl)-2,6-diazaspiro[3.4]octan-6-yl)-1,2,4-triazin-6-yl)oxy)benzamide fumarate] | ~0.4 | 70 | > 15000 | 56 | 58
17 | CCN(C(=O)c1cc(F)ccc1Oc1nncnc1N1CCC2(C1)CN([C@H](CCN(C)CCCOC)C(C)C)C2)C(C)C (single isomer, unassigned) [Compound 275, (*R)—N-ethyl-5-fluoro-N-isopropyl-2-((5-(2-(1-((3-methoxypropyl)(methyl)amino)-4-methylpentan-3-yl)-2,6-diazaspiro[3.4]octan-6-yl)-1,2,4-triazin-6-yl)oxy)benzamide] | 0.66 | 78 | > 15000 | 100 | 330
18 | CCN(C(=O)c1cc(F)ccc1Oc1nncnc1N1CCC2(C1)CN([C@H](CCCN(C)C[C@H](C)OC)C(C)C)C2)C(C)C (single isomer, unassigned) [Compound 251, N-ethyl-5-fluoro-N-isopropyl-2-((5-(2-((R)-6-(((*S)-2-methoxypropyl)(methyl)amino)-2-methylhexan-3-yl)-2,6-diazaspiro[3.4]octan-6-yl)-1,2,4-triazin-6-yl)oxy)benzamide oxalate] | 0.18 | 52 | 3900 | 19 | 130
